pEC50, pIC50: −log10 of the molar value. Read-outs that look alike come from different tables or passages of the source.
Columns and labels:
kOR (OPRK1) = kOR (OPRK1) (Homo sapiens (Human), UniProt P41145); test: KOR β-Arrestin antagonist assay (Tango OPRK1-bla U2OS cells); format: cell-based
Source text: KOR β-Arrestin Agonist and Antagonist assays were preformed using the Tango™ OPRK1-bla U2OS cells from Invitrogen and purchased from ThermoFisher, catalog number K1576.

human dOR = human dOR (Homo sapiens (Human), UniProt P41143); test: cell-based; details: dOR cAMP Agonist Assay EC50, CHO Tag-lite human dOR stable cell line; forskolin
human mOR = human mOR (Homo sapiens (Human), UniProt P35372); test: cell-based
[1] = CHO Tag-lite human mOR stable cell line, forskolin 4 μM and DAMGO at EC90, read-out: mOR cAMP Antagonist Assay IC50

Chain of kOR (OPRK1) (P41145 whole entry): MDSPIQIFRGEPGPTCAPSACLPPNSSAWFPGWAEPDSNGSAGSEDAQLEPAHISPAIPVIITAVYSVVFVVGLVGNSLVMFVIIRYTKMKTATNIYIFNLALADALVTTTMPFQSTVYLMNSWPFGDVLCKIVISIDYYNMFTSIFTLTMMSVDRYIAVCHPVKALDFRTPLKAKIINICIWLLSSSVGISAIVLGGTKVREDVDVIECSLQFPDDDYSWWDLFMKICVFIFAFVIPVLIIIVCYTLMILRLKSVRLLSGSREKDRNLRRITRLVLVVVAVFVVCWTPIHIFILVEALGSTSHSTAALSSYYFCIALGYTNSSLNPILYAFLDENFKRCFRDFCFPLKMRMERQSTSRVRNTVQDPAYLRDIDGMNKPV
Chain of human mOR (P35372 whole entry): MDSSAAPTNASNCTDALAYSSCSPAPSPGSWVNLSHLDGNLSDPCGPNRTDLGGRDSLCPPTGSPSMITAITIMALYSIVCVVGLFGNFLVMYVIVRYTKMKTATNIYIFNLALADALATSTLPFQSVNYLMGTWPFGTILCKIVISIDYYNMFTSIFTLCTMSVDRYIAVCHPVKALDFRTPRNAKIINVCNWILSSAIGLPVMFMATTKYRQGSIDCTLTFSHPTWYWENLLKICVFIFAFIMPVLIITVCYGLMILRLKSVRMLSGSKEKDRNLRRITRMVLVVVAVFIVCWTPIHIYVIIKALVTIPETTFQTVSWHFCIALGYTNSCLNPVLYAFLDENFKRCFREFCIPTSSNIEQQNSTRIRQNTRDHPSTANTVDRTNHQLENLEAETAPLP
Chain of human dOR (P41143 whole entry): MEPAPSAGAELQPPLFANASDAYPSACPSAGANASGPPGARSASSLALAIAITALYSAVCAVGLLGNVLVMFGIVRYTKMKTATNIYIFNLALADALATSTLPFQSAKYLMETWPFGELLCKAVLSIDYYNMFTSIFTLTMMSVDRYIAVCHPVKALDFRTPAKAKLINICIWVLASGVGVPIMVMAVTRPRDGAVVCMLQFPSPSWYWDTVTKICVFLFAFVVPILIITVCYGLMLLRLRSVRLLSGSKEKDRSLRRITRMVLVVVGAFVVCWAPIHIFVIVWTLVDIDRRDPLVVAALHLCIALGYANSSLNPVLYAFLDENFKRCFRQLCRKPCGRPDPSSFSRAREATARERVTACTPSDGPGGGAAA

| SMILES | pIC50 (kOR (OPRK1)) | pEC50 (human dOR) | pIC50 (human mOR) | pIC50 (human mOR; [1]) |
| --- | --- | --- | --- | --- |
| CNC(=O)c1ccc(C[C@@H](CNC(=O)C[C@H](c2ccc(Cl)cc2)C2(C(F)(F)F)CC2)N(C)C)c(C)c1 [Compound 142, 4-((S)-3-((R)-3-(4-chlorophenyl)-3-(1-(trifluoromethyl)cyclopropyl)propanamido)-2-(dimethylamino)propyl)-N,3-dimethylbenzamide] | > 6.52 | < 5.52 | > 6.52 | – |
| CN(C)[C@H](CNC(=O)C[C@@H](c1ccccc1)C1CC1)Cc1ccc2[nH]ncc2c1 [Compound 226, (3R)-3-cyclopropyl-N-[(2S)-2-(dimethylamino)-3-(1H-indazol-5-yl)propyl]-3-phenylpropanamide] | > 6.52 | 5.52 to 6.52 | – | > 6.52 |
| CN(C)[C@H](CNC(=O)C[C@@H](c1ccccc1)C1CC1)Cc1ccc(O)cc1 [Compound 318, (R)-3-cyclopropyl-N-((S)-2-(dimethylamino)-3-(4-hydroxyphenyl)propyl)-3-phenylpropanamide] | > 6.52 | > 6.52 | > 6.52 | – |
| CN(C)[C@H](CNC(=O)C[C@H](CC1CCC1)c1ccccc1)Cc1ccc(C(N)=O)cc1 [Compound 90, 4-[(2S)-3-[(3S)-4-cyclobutyl-3-phenylbutanamido]-2-(dimethylamino)propyl]benzamide] | > 6.52 | > 6.52 | > 6.52 | – |
| CNC(=O)c1ccc(C[C@@H](CNC(=O)C[C@H](c2cc(F)cc(F)c2)C2(C(F)(F)F)CC2)N(C)C)c(C)c1 [Compound 136, 4-((S)-3-((R)-3-(3,5-difluorophenyl)-3-(1-(trifluoromethyl)cyclopropyl)propanamido)-2-(dimethylamino)propyl)-N,3-dimethylbenzamide] | > 6.52 | 5.52 to 6.52 | > 6.52 | – |
| CC(C)C[C@@H](CC(=O)NC[C@H](Cc1ccc(C(N)=O)cc1)N(C)C)c1ccccc1 [Compound 91, 4-[(2S)-2-(dimethylamino)-3-[(3S)-5-methyl-3-phenylhexanamido]propyl]benzamide] | > 6.52 | > 6.52 | > 6.52 | – |
| CN(C)[C@H](CNC(=O)C[C@@H](c1ccccc1)C1(C(F)(F)F)CC1)Cc1ccc(C(N)=O)cc1 [Compound 88, 4-[(2S)-2-(dimethylamino)-3-[(3S)-3-phenyl-3-[1-(trifluoromethyl)cyclopropyl]propanamido]propyl]benzamide] | > 6.52 | > 6.52 | > 6.52 | – |
| CN(C)[C@H](CNC(=O)C[C@H](c1ccccc1)C1CC1)Cc1ccc(O)cc1 [Compound 319, (S)-3-cyclopropyl-N-((S)-2-(dimethylamino)-3-(4-hydroxyphenyl)propyl)-3-phenylpropanamide] | > 6.52 | > 6.52 | – | < 5.52 |
| Cc1ncc([C@@H](CC(=O)NC[C@H](Cc2ccc(C(N)=O)c(F)c2Cl)N(C)C)C2(C(F)(F)F)CC2)cn1 [Compound 21, 3-chloro-4-[(2S)-2-(dimethylamino)-3-[(3R)-3-(2-methylpyrimidin-5-yl)-3-[1-(trifluoromethyl)cyclopropyl]propanamido]propyl]-2-fluorobenzamide] | > 6.52 | 5.52 to 6.52 | > 6.52 | – |
| CN(C)[C@H](CNC(=O)C[C@@H](c1ccccc1)C1CC1)Cc1ccc(C(N)=O)cc1 [Compound 97, 4-((S)-3-((R)-3-cyclopropyl-3-phenylpropanamido)-2-(dimethylamino)propyl)benzamide] | > 6.52 | > 6.52 | > 6.52 | – |
| Cc1cc(O)cc(C)c1C[C@@H](CNC(=O)C[C@H](c1ccccc1)C1CC1)N(C)C [Compound 251, (S)-3-cyclopropyl-N-((S)-2-(dimethylamino)-3-(4-hydroxy-2,6-dimethylphenyl)propyl)-3-phenylpropanamide] | > 6.52 | < 5.52 | – | > 6.52 |
| Cc1ncc([C@@H](CC(=O)NC[C@H](Cc2ccc(C(N)=O)c(F)c2)N(C)C)C2(C(F)(F)F)CC2)cn1 [Compound 68, 4-((S)-2-(dimethylamino)-3-((R)-3-(2-methylpyrimidin-5-yl)-3-(1-(trifluoromethyl)cyclopropyl)propanamido)propyl)-2-fluorobenzamide] | > 6.52 | < 5.52 | > 6.52 | – |
| Cc1cc(C(N)=O)cc(C)c1C[C@@H](CNC(=O)C[C@@H](CC(C)C)c1ccccc1)N(C)C [Compound 12, 4-[(2S)-2-(dimethylamino)-3-[(3R)-5-methyl-3-phenylhexanamido]propyl]-3,5-dimethylbenzamide] | > 6.52 | < 5.52 | > 6.52 | – |
| CN(C)[C@H](CNC(=O)C[C@H](c1ccccc1)C1CC1)Cc1ccc2[nH]ncc2c1 [Compound 227, (3S)-3-cyclopropyl-N-[(2S)-2-(dimethylamino)-3-(1H-indazol-5-yl)propyl]-3-phenylpropanamide] | 5.52 to 6.52 | 5.52 to 6.52 | – | > 6.52 |
| CC(C)C[C@H](CC(=O)NC[C@H](Cc1ccc(C(N)=O)cc1)N(C)C)c1ccccc1 [Compound 96, 4-((S)-2-(dimethylamino)-3-((R)-5-methyl-3-phenylhexanamido)propyl)benzamide] | > 6.52 | > 6.52 | > 6.52 | – |
| CN(C)[C@H](CNC(=O)C[C@H](c1ccccc1)C1(C(F)(F)F)CC1)Cc1ccc(C(N)=O)c(F)c1 [Compound 77, 4-((S)-2-(dimethylamino)-3-((R)-3-phenyl-3-(1-(trifluoromethyl)cyclopropyl)propanamido)propyl)-2-fluorobenzamide] | > 6.52 | < 5.52 | > 6.52 | – |
| Cc1cc(C(N)=O)cc(C)c1C[C@@H](CNC(=O)C[C@H](c1ccccc1)C1(C(F)(F)F)CC1)N(C)C [Compound 8, 4-((S)-2-(dimethylamino)-3-((R)-3-phenyl-3-(1-(trifluoromethyl)cyclopropyl)propanamido)propyl)-3,5-dimethylbenzamide] | > 6.52 | < 5.52 | – | < 5.52 |
| CN(C)[C@H](CNC(=O)C[C@H](c1ccc(Cl)c(Cl)c1)C1(C(F)(F)F)CC1)Cc1ccc(C(N)=O)cc1 [Compound 80, 4-((S)-3-((R)-3-(3,4-dichlorophenyl)-3-(1-(trifluoromethyl)cyclopropyl)propanamido)-2-(dimethylamino)propyl)benzamide] | > 6.52 | > 6.52 | > 6.52 | – |
| Cc1ccc([C@@H](CC(=O)NC[C@H](Cc2ccc(C(N)=O)c(F)c2Cl)N(C)C)C2(C(F)(F)F)CC2)cn1 [Compound 20, 3-chloro-4-((S)-2-(dimethylamino)-3-((R)-3-(6-methylpyridin-3-yl)-3-(1-(trifluoromethyl)cyclopropyl)propanamido)propyl)-2-fluorobenzamide] | > 6.52 | 5.52 to 6.52 | – | > 6.52 |
| Cc1cc(C(N)=O)cc(C)c1C[C@@H](CNC(=O)C[C@@H](c1ccccc1)C1CC1)N(C)C [Compound 11, 4-((S)-3-((R)-3-cyclopropyl-3-phenylpropanamido)-2-(dimethylamino)propyl)-3,5-dimethylbenzamide] | > 6.52 | < 5.52 | > 6.52 | – |
| Cc1cc(C(N)=O)cc(C)c1C[C@@H](CNC(=O)C[C@@H](c1ccccc1)C1(C(F)(F)F)CC1)N(C)C [Compound 7, 4-((S)-2-(dimethylamino)-3-((S)-3-phenyl-3-(1-(trifluoromethyl)cyclopropyl)propanamido)propyl)-3,5-dimethylbenzamide] | > 6.52 | > 6.52 | – | < 5.52 |

Reference: patent US11634396B2 (priority 2021, dated 2023)
